{"source": "patent US20040248953A1", "about": "“3-Arylsulfanyl and 3-heteroarylsulfanyl substituted benzo[b]thiophenes as therapeutic agents” (priority 2003, published 2004)", "data": [{"biological_target": "T1, PI3Kγ (Homo sapiens, UniProt P48736)", "T1 construct": "HA; made in house; host or cells: Spodoptera frugiperda (Sf9) cells, baculovirus coinfection", "T1 sequence (P48736 whole entry, species assumed)": "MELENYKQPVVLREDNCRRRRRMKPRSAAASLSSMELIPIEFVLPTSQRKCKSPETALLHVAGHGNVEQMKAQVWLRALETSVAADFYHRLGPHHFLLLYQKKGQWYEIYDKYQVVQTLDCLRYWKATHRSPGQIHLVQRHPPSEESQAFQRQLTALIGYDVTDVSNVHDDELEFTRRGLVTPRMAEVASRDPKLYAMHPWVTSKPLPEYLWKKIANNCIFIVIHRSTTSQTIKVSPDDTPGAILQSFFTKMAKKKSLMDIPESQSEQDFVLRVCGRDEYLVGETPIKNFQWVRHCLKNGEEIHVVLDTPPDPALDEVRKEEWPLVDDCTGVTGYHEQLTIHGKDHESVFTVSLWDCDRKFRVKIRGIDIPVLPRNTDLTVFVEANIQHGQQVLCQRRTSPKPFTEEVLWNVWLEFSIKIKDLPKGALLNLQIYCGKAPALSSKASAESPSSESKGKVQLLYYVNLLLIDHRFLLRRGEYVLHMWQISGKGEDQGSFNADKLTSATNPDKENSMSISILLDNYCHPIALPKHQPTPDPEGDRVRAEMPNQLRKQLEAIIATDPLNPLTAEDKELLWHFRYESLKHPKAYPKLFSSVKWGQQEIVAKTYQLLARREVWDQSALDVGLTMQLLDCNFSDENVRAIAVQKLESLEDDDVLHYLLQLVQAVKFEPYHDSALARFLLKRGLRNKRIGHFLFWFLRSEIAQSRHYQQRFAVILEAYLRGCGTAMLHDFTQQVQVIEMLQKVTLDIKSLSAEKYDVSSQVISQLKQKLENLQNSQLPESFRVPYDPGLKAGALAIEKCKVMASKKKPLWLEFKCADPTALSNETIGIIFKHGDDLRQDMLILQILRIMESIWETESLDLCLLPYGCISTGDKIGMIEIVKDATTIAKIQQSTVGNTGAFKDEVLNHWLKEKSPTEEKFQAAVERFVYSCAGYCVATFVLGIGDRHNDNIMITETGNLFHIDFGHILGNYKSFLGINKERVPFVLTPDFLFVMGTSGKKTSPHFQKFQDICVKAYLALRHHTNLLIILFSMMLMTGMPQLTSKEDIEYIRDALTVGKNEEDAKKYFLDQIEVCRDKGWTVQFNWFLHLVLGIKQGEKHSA", "T1 sequence (Q8WYR1 whole entry partner, species assumed)": "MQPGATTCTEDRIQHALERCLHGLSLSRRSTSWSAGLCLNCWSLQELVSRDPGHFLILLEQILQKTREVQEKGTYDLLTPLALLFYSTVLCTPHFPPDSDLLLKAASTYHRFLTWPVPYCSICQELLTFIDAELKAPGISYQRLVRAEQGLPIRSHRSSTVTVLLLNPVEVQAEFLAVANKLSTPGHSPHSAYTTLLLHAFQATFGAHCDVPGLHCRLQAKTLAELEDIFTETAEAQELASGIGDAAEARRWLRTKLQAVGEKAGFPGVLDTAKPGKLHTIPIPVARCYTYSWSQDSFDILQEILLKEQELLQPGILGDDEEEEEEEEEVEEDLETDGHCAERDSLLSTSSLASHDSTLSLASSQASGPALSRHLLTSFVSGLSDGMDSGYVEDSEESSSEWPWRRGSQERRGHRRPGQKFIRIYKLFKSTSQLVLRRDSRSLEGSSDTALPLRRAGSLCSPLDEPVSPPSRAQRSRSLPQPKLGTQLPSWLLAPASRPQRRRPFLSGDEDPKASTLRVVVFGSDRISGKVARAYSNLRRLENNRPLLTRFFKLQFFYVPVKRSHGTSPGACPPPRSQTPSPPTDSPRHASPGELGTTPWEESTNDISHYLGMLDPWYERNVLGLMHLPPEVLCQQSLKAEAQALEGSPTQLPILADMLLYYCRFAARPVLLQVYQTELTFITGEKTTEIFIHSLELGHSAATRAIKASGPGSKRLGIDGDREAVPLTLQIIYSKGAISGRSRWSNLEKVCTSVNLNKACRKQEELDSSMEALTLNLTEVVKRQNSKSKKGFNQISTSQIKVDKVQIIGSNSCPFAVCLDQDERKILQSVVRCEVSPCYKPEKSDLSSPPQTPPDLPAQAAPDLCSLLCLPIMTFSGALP", "experiment": "PI3Kγ in vitro kinase assay (32P-ATP, PIP2 lipid micelles, filter plate)", "type": "biochemical", "conditions": "purified recombinant p101/p110γ protein with G protein β1/γ2 subunits; 20 μM ATP; 25 μM PIP2; 20 minutes at room temperature", "procedure": "Spodtera frugiperda cells, grown in ESF921 media, were coinfected with baculovirus expressing a glu-tagged p101 and baculovirus expressing an HA-tagged p110γ, at a 3:1 ratio of p101 baculovirus to p110γ baculovirus. Sf9 cells were grown to 1×10^7 total cells/mL in 10 L bioreactors and harvested 48-72 hours post infection. Samples of infected cells were then tested for expression of p101/p110γ PI3 kinase by immunoprecipitation and Western Blot analysis methods (see below). To purify PI3Kγ, 4 volumes of room temperature hypotonic lysis buffer (1 mM MgCl2, 1 mM DTT, 5 mM EGTA, 1 mM Pefabloc, 0.5 μM aprotinin, 5 μM leupeptin, 2 μM pepstatin, 5 μM E64, pH 8) per gram of cell paste, was poured onto frozen cell pellets with stirring, then lysed in a nitrogen “bomb” at 400 psi (599HC […], Parr Instrument Co, Moline, Ill.). NaCl was added to 150 mM, and sodium cholate was added to 1% and mixed for another 45 minutes. The lysates were clarified by centrifugation for 25 minutes at 14,000 rpm. The lysates were then loaded over anti-glu-linked Protein-G Sepaharose beads (Covance Research Products, Richmond, Calif.) using 20 mL resin/50 g cell paste. The column was washed with 15 volumes of wash buffer (1 mM DTT, 0.2 mM EGTA, 1 mM Pefabloc, 0.5 μM aprotinin, 5 μM leupeptin, 2 μM pepstatin, 5 μM E64, 150 mM NaCl, 1% sodium cholate, pH 8). PI3Kγ was eluted with 6 column volumes of wash buffer that contain 100 μg/mL of a peptide that competes for binding of the glu tag. The column fractions with the eluted protein (determined by taking OD280 readings) were collected and dialyzed in 0.2 mM EGTA, 1 mM DTT, 1 mM Pefabloc, 5 μM leupeptin, 0.5% sodium cholate, 150 mM NaCl, and 50% glycerol, pH 8. The fractions were stored at -80° C. until further use. Spodtera frugiperda cells were coinfected with baculovirus expressing a glu-tagged G protein β1 and baculovirus expressing a […], at a 1:1 ratio of glu-tagged G protein β1 baculovirus to G protein β2 baculovirus. Sf9 cells are grown in 10 L bioreactors and harvested 48-72 hours post infection. Samples of infected cells were tested for G protein β1/β2 expression by Western Blot analysis, as described below. Cell lysates were homogenized and loaded onto a column of glu-tagged beads as in Biological Example 1 and competed off the column with a glu peptide and processed as described in Biological Example 1. The inhibitory properties of the compounds in Table 1 were assayed in an in vitro PI3K assay. In a 96-well polypropylene plate, each well was spotted with […] of 50 times the desired final concentration of compound in DMSO. Purified recombinant p101/p110γ protein (0.03 μg; 2.7 nM) and G protein β1/γ2 subunits (0.09 μg; 57.7 nM) for each reaction was combined in the assay buffer (30 mM HEPES, 100 mM NaCl, 1 mM EGTA, and 1 mM DTT). ATP and [γ-^32P-ATP] (0.09 μCi) were added to this mixture so that the final ATP concentration in the reaction was 20 μM. Lipid micelles were formed by sonicating phosphatidylinositol4,5-diphosphate (PIP2), phosphatidylethanolamine (PE), and Na-cholate in the assay buffer for 10 minutes, adding MgCl2 and incubating on ice for 20 minutes, for final concentrations of 25 μM PIP2, 300 μM PE, 0.02% Na-cholate, and 10 mM MgCl2 in the reaction. The reactions were started by adding equal volumes lipid and enzyme mixture in a total volume of 50 μL, allowed to run for 20 minutes at room temperature, and stopped with 100 μL 75 mM H3PO4. The lipid product was transferred to a glass fiber filter plate and washed with 75 mM H3PO4 several times. The presence of radioactive lipid product (PIP3) was measured by adding Wallac Optiphase mix to each well and counting in a Wallac 1450 Trilux plate reader (PerkinElmer Life Sciences Inc., Boston, Mass. 02118). The IC50 for each compound tested is reported in μM in Table 1: […]", "units": {"IC50": "µM"}, "values": [{"compound": "3-(2,3-dichloro-phenylsulfanyl)-5-methoxy-benzo[b]thiophene-2-carboxylic acid(1H-tetrazol-5-yl)-amide [Example 25]", "IC50": 3.45}, {"compound": "3-(3-Chloro-phenylsulfanyl)-5-methoxy-6-methyl-benzo[b]thiophene-2-carboxylic acid(1H-tetrazol-5-yl)-amide [Example 33]", "IC50": 0.17}, {"compound": "3-[2-(Acetyl-methyl-amino)-1-phenyl-propylsulfanyl]-6-methoxy-5-methyl-benzo[b]thiophene-2-carboxylic acid(1H-tetrazol-5-yl)-amide [Example 43]", "IC50": 0.215}, {"compound": "5,6-dimethoxy-3-phenethylsulfanyl-benzo[b]thiophene-2-carboxylic acid(1H-tetrazol-5-yl)-amide [Example 13]", "IC50": 0.522}, {"compound": "5-Ethoxy-3-phenethylsulfanyl-benzo[b]thiophene-2-carboxylic acid(1H-tetrazol-5-yl)-amide [Example 52]", "IC50": 2.85}, {"compound": "5-methoxy-3-(2-methyl-furan-3-ylsulfanyl)-benzo[b]thiophene-2-carboxylic acid(1H-tetrazol-5-yl)-amide [Example 16]", "IC50": 2.21}, {"compound": "COc1cc2sc(C(=O)Nc3nnn[nH]3)c(Sc3ccccc3)c2cc1OC", "note": "[Example 1, 5,6-Dimethoxy-3-phenylsulfanyl-benzo[b]thiophene-2-carboxylic acid(1H-tetrazol-5-yl)-amide]", "IC50": 0.06}, {"compound": "COc1cc2c(Sc3ccccc3)c(C(=O)Nc3nnn[nH]3)sc2cc1C", "note": "[Example 2, 5-Methoxy-6-methyl-3-phenylsulfanyl-benzo[b]thiophene-2-carboxylic acid(1H-tetrazol-5-yl)-amide]", "IC50": 0.177}, {"compound": "CCOc1ccc2sc(C(=O)Nc3nnn[nH]3)c(Sc3ccccc3)c2c1", "note": "[Example 3, 5-Ethoxy-3-phenylsulfanyl-benzo[b]thiophene-2-carboxylic acid (1H-tetrazol-5-yl)-amide]", "IC50": 0.253}, {"compound": "COc1ccc2sc(C(=O)Nc3nnn[nH]3)c(Sc3ccc(O)cc3)c2c1", "note": "[Example 4, 3-(4-hydroxy-phenylsulfanyl)-5-methoxy-benzo[b]thiophene-2-carboxylic acid(1H-tetrazol-5-yl)-amide]", "IC50": 2.77}, {"compound": "COc1cc2sc(C(=O)Nc3nnn[nH]3)c(Sc3ccccc3C)c2cc1OC", "note": "[Example 5, 5,6-dimethoxy-3-o-tolysulfanyl-benzo[b]thiophene-2-carboxylic acid(1H-tetrazol-5-yl)-amide]", "IC50": 1.27}, {"compound": "CCc1ccccc1Sc1c(C(=O)Nc2nnn[nH]2)sc2cc(OC)c(OC)cc12", "note": "[Example 6, 3-(2-ethyl-phenylsulfanyl)-5,6-dimethoxy-benzo[b]thiophene-2-carboxylic acid(1H-tetrazol-5-yl)-amide]", "IC50": 1.17}, {"compound": "COc1cc2sc(C(=O)Nc3nnn[nH]3)c(Sc3cccc(Cl)c3)c2cc1OC", "note": "[Example 7, 3-(3-chloro-phenylsulfanyl)-5,6-dimethoxy-benzo[b]thiophene-2-carboxylic acid(1H-tetrazol-5-yl)-amide]", "IC50": 1.99}, {"compound": "COc1cc2sc(C(=O)Nc3nnn[nH]3)c(Sc3ccc(Cl)cc3)c2cc1OC", "note": "[Example 8, 3-(4-chloro-phenylsulfanyl)-5,6-dimethoxy-benzo[b]thiophene-2-carboxylic acid(1H-tetrazol-5-yl)-amide]", "IC50": 3.72}, {"compound": "COc1cc2sc(C(=O)Nc3nnn[nH]3)c(Sc3ccc(C)cc3C)c2cc1OC", "note": "[Example 9, 3-(2,4-dimethyl-phenylsulfanyl)-5,6-dimethoxy-benzo[b]thiophene-2-carboxylic acid(1H-tetrazol-5-yl)-amide]", "IC50": 2.8}, {"compound": "COc1cc2sc(C(=O)Nc3nnn[nH]3)c(Sc3cccc(Cl)c3Cl)c2cc1OC", "note": "[Example 10, 3-(2,3-dichloro-phenylsulfanyl)-5,6-dimethoxy-benzo[b]thiophene-2-carboxylic acid(1H-tetrazol-5-yl)-amide]", "IC50": 1.13}, {"compound": "COc1cc2sc(C(=O)Nc3nnn[nH]3)c(Sc3ccc(C)c(C)c3)c2cc1OC", "note": "[Example 11, 3-(3,4-dimethyl-phenylsulfanyl)-5,6-dimethoxy-benzo[b]thiophene-2-carboxylic acid(1H-tetrazol-5-yl)-amide]", "IC50": 2.07}, {"compound": "COc1cc2sc(C(=O)Nc3nnn[nH]3)c(Sc3ccc(Cl)c(Cl)c3)c2cc1OC", "note": "[Example 12, 3-(3,4-dichloro-phenylsulfanyl)-5,6-dimethoxy-benzo[b]thiophene-2-carboxylic acid(1H-tetrazol-5-yl)-amide]", "IC50": 1.23}, {"compound": "COc1cc(Sc2c(C(=O)Nc3nnn[nH]3)sc3cc(OC)c(OC)cc23)ccc1O", "note": "[Example 14, 3-(4-hydroxy-3-methoxy-phenylsulfanyl)-5,6-dimethoxy-benzo[b]thiophene-2-carboxylic acid(1H-tetrazol-5-yl)-amide]", "IC50": 2.31}, {"compound": "COc1ccc(OC)c(Sc2c(C(=O)Nc3nnn[nH]3)sc3cc(OC)c(OC)cc23)c1", "note": "[Example 15, 3-(2,5-dimethoxy-phenylsulfanyl)-5,6-dimethoxy-benzo[b]thiophene-2-carboxylic acid(1H-tetrazol-5-yl)-amide]", "IC50": 0.62}, {"compound": "COc1ccc2sc(C(=O)Nc3nnn[nH]3)c(Sc3ccccc3)c2c1", "note": "[Example 17, 5-methoxy-3-phenylsulfanyl-benzo[b]thiophene-2-carboxylic acid(1H-tetrazol-5-yl)-amide]", "IC50": 2.65}, {"compound": "COc1ccc2sc(C(=O)Nc3nnn[nH]3)c(Sc3ccccc3C)c2c1", "note": "[Example 18, 5-methoxy-3-o-tolysulfanyl-benzo[b]thiophene-2-carboxylic acid (1H-tetrazol-5-yl)-amide]", "IC50": 0.47}, {"compound": "COc1ccc2sc(C(=O)Nc3nnn[nH]3)c(Sc3ccccc3Cl)c2c1", "note": "[Example 19, 3-(2-chloro-phenylsulfanyl)-5-methoxy-benzo[b]thiophene-2-carboxylic acid(1H-tetrazol-5-yl)-amide]", "IC50": 2.22}, {"compound": "COc1ccc2sc(C(=O)Nc3nnn[nH]3)c(Sc3ccccc3Br)c2c1", "note": "[Example 20, 3-(2-bromo-phenylsulfanyl)-5-methoxy-benzo[b]thiophene-2-carboxylic acid(1H-tetrazol-5-yl)-amide]", "IC50": 2.92}, {"compound": "COc1ccc2sc(C(=O)Nc3nnn[nH]3)c(Sc3cccc(Cl)c3)c2c1", "note": "[Example 21, 3-(3-chloro-phenylsulfanyl)-5-methoxy-benzo[b]thiophene-2-carboxylic acid(1H-tetrazol-5-yl)-amide]", "IC50": 4.31}, {"compound": "COc1cccc(Sc2c(C(=O)Nc3nnn[nH]3)sc3ccc(OC)cc23)c1", "note": "[Example 22, 5-methoxy-3-(3methoxyphenylsulfanyl)-benzo[b]thiophene-2-carboxylic acid(1H-tetrazol-5-yl)-amide]", "IC50": 2.93}, {"compound": "COc1ccc2sc(C(=O)Nc3nnn[nH]3)c(Sc3ccc(Cl)cc3)c2c1", "note": "[Example 23, 3-(4-chloro-phenylsulfanyl)-5-methoxy-benzo[b]thiophene-2-carboxylic acid(1H-tetrazol-5-yl)-amide]", "IC50": 4.93}, {"compound": "COc1ccc(OC)c(Sc2c(C(=O)Nc3nnn[nH]3)sc3ccc(OC)cc23)c1", "note": "[Example 24, 3-(2,5-dimethoxy-phenylsulfanyl)-5-methoxy-benzo[b]thiophene-2-carboxylic acid(1H-tetrazol-5-yl)-amide]", "IC50": 1.22}, {"compound": "COc1ccc2sc(C(=O)Nc3nnn[nH]3)c(SCCc3ccccc3)c2c1", "note": "[Example 26, 5-methoxy-3-phenethylsulfanyl-benzo[b]thiophene-2-carboxylic acid(1H-tetrazol-5-yl)-amide]", "IC50": 1.6}]}]}
